Test results from ChEMBL document CHEMBL4725266, “Decaturenol A and known oxalicine related meroterpenoids isolated from Penicillium decaturense RO050, and their new biological activities” (Bioorg Med Chem Lett, 2020).
Calls of active or inactive are those of the source. No cut-off for these calls is given here.

Columns and labels:
BMDM = assay: Inhibition of IL-10-induced CD163 expression in human MDM cells at 20 ug/ml incubated for 24 hrs by ELISA; type: functional, cell-based; conditions: dose 20.0 µg/ml
[1] = Cytotoxicity against human MDM cells assessed as reduction in cell viability at 20 ug/ml incubated for 24 hrs by MTT assay; type: cell-based; conditions: dose 20 µg/ml
[2] = Cytotoxicity against human MDM cells assessed as reduction in cell viability at 20 ug/ml incubated for 48 hrs by MTT assay; type: cell-based; conditions: dose 20 µg/ml
[3] = Cytotoxicity against human MDM cells assessed as reduction in cell viability at 40 ug/ml incubated for 24 hrs by MTT assay; type: cell-based; conditions: dose 40 µg/ml
HT-22 [4] = assay: Protection against TM mediated ER stress-induced cell death in mouse HT-22 cells assessed as increase in cell viability at 10 uM incubated for 24 hrs by MTT assay; type: functional, cell-based
HT-22 [5] = assay: Cytotoxicity against mouse HT-22 cells assessed as reduction in cell viability at 10 uM incubated for 24 hrs by MTT assay; type: cell-based; conditions: ht-22, 24 h
HT-22 [6] = assay: Cytotoxicity against mouse HT-22 cells assessed as reduction in cell viability at 10 uM incubated for 24 hrs in presence of tunicamycin by MTT assay; type: cell-based; conditions: ht-22, 24 h
HT-22 [7] = assay: Cytotoxicity against mouse HT-22 cells assessed as reduction in cell viability at incubated for 24 hrs by MTT assay; type: cell-based; conditions: HT-22, 24 h

## CC1=CC[C@@H]2[C@@]3(C)CC[C@H](O)C(C)(C)[C@@H]3CC[C@@]2(C)[C@]12Cc1c(cc(-c3cccnc3)oc1=O)O2
BMDM
  inhibition: Active
[1]
  Activity: Non-Toxic
[2]
  Activity: Toxic
[3]
  Activity: Toxic

## C/C(=C\CC/C(C)=C/Cc1c(O)cc(-c2cccnc2)oc1=O)CC/C=C(\C)CCC(O)C(C)(C)O (centres undefined)
HT-22 [4]
  Activity: Active
BMDM
  inhibition: Active
[1]
  Activity: Non-Toxic
[2]
  Activity: Toxic
[3]
  Activity: Toxic
HT-22 [5]
  Activity: Non-Toxic

## CC1=CC[C@@H]2[C@]34CC[C@](O)(OC3)C(C)(C)[C@@H]4CC[C@@]2(C)[C@@]12Oc1cc(-c3cccnc3)oc(=O)c1[C@@H]2O [DECATURIN B]
HT-22 [4]
  Activity: Active
BMDM
  inhibition: Active
[1]
  Activity: Non-Toxic
[2]
  Activity: Toxic
[3]
  Activity: Toxic
HT-22 [5]
  Activity: Toxic

## CC1=CC[C@@H]2[C@@]3(C)CCC(=O)C(C)(C)[C@@H]3CC[C@@]2(C)[C@]12Cc1c(cc(-c3cccnc3)oc1=O)O2 [DECATURIN D]
HT-22 [4]
  Activity: Active
BMDM
  inhibition: Active
[1]
  Activity: Non-Toxic
[2]
  Activity: Toxic
[3]
  Activity: Toxic
HT-22 [5]
  Activity: Toxic

## C=C(C)[C@@H]1CC[C@]2(C)[C@H](CC=C(C)[C@]23Oc2cc(-c4cccnc4)oc(=O)c2[C@@H]3O)[C@@]12CCC(=O)OC2 [OXALICINE A]
HT-22 [6]
  Activity: Toxic
HT-22 [7]
  IC50: 5.9 µM
